Experimental data reported in patent US20110166121A1 (LG LIFE SCIENCES LTD., priority 2008, published 2011).

Key:
[1] = tested on: Human platelet aggregation caused by ADP; test: Inhibition of ADP-induced platelet aggregation (Mimic-human PRP); assay type: cell-based; conditions: 20 μM ADP, human platelet concentrate diluted with PPP, absorption at 595 nm
How it was run: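 Ki came from non-linear sigmoidal fits of inhibition, measured as the 3-min rise in absorbance at 595 nm after 20 μM ADP, relative to 0/20 μM ADP controls. Platelets (3–4×10^8/mL in PPP-diluted human PRP) were exposed to 0.01–30 μM compound for 20 min at room temperature beforehand.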

[2] = target: T1, Human P2Y12 receptor (Homo sapiens, UniProt Q9H244); test: Human P2Y12 receptor cell membrane binding assay with [3H] 2-Mes-ADP; conditions: 1 nM [3H] 2-Mes-ADP; for IC50: membranes of HEK cells expressing P2Y12 receptor, read-out: Binding activity (IC50); for inhibition at 30 µM: 30 μM compound
T1 construct: expressed in transfected cells; host or cells: HEK cells
Experimental: Human P2Y12 Receptor Cell Membrane Binding Assay with [^3H] 2-Mes-ADP
Whether test compounds bind to P2Y12 receptor is measured by [3H]-2MesADP binding in HEK cells expressing P2Y12 receptor. The efficacy according to the amount of test compound can be known through the above test, competitive binding test to P2Y12 receptor, in which the binding material (2-Mes-ADP) is labeled with radioactivity isotope and then the extent of inhibition against the binding of radioactively labeled material is measured.
Preparation of P2Y12 Membrane Protein Fraction
Harvested P2Y12 cells were resuspended with Hypotonic buffer (10 mM HEPES, 10 mM NaCl, 1 mM EDTA, 1 mM EGTA pH 7.4) containing protease inhibitor cocktail. Following the incubation on ice for 15 min, cells were homogenized on ice (Glass/Teflon homogenizer; 1,000 rpm, 10 strokes). The supernant was taken from centrifugation at 500×g for 15 min and then recentrifuged the supernant at 30,000 rpm for 30 min. The membrane pellet was adjusted to 1 mg/mL concentration and stored at −80° C.
P2Y12 Receptor Cell Membrane Binding Assay with [3H] 2-Mes-ADP
The volume of 100 μL of 200 μg membrane protein was aliquoted into 96 well plate. 50 μL volume of test compounds and [^3H] 2-Mes-ADP (final: 1 nM) were added into each well. The total reaction of 0.2 ml/well was incubated for 1 hour at R.T. The reaction was terminated by filtration through GF/B filter using a 96-well cell harvester. […] Radioactivity bound to P2Y12 receptor membrane was counted in a scintillation counter. Total binding was determined with CPM of test group having no compound and non-specific binding was determined with CPM of test group containing 10 μM 2-Mes-ADP. Binding inhibition percent was calculated as follows: [100−(specific binding in the presence of test material/specific binding in the absence of test material×100)].

T1 sequence (Q9H244 whole entry): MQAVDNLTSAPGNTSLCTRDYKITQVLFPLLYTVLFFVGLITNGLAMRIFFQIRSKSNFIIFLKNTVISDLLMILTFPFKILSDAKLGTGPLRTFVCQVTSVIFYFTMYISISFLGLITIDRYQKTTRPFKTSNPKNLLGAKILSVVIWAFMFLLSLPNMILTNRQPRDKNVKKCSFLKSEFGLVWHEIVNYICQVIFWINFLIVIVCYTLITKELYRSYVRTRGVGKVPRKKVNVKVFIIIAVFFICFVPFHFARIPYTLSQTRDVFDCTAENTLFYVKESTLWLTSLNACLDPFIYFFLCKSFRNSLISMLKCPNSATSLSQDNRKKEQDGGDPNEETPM

| inhibition at 30 µM [2] [%] | Compound | Ki [1] [nM] | IC50 [2] [nM] |
| --- | --- | --- | --- |
|  | CC(C)c1cc2c(N3CCn4c(nnc4C(F)(F)F)C3)nc(N3CCNC(=O)C3)nc2s1 [Example 2-12, 4-[6-isopropyl-4-(3-trifluoromethyl-5,6-dihydro-8H-[1,2,4]triazolo[4,3-a]pyrazin-7-yl)-thieno[2,3-d]pyrimidin-2-yl]-piperazin-2-one] | 2900 | 460 |
|  | CCCc1cc2c(N3CCn4c(nnc4C(F)(F)F)C3)nc(Oc3ccccc3C(=O)O)nc2s1 [Example 3-33, 2-[6-Propyl-4-(3-trifluoromethyl-5,6-dihydro-8H-[1,2,4]triazolo[4,3-a]pyrazin-7-yl)-thieno[2,3-d]pyrimidin-2-yloxy]-benzoic acid] | > 4000 | 2220 |
|  | CCCc1cc2c(N3CCn4c(nnc4C(F)(F)F)C3)nc(N3CC[C@H](C(N)=O)C3)nc2s1 [Example 1-86, (S)-1-[6-Propyl-4-(3-trifluoromethyl-5,6-dihydro-8H-[1,2,4]triazolo[4,3-a]pyrazin-7-yl)-thieno[2,3-d]pyrimidin-2-yl]-pyrrolidine-3-carboxylic acid amide] | 11 | 24 |
|  | CCCc1cc2c(N3CCn4c(nnc4C(F)(F)F)C3)nc(N3CC[C@H](NC(=O)c4ccccn4)C3)nc2s1 [Example 1-111, Pyridine-2-carboxylic Acid {(S)-1-[6-propyl-4-(3-trifluoromethyl-5,6-dihydro-8H-[1,2,4]triazolo[4,3-a]pyrazin-7-yl)-thieno[2,3-d]pyrimidin-2-yl]-pyrrolidin-3-yl}-amide] | 590 | 150 |
|  | CCCc1cc2c(N3CCn4c(nnc4C(F)(F)F)C3)nc(NC3CCCC3)nc2s1 [Example 1-31, Cyclopentyl-[6-propyl-4-(3-trifluoromethyl-5,6-dihydro-8H-[1,2,4]triazolo[4,3-a]pyrazin-7-yl)-thieno[2,3-d]pyrimidin-2-yl]-amine] | 7600 | 110 |
|  | CCCc1cc2c(N3CCn4c(nnc4C(F)(F)F)C3)nc(N3CCC[C@H](N)C3)nc2s1 [Example 1-125, (S)-1-[6-Propyl-4-(3-trifluoromethyl-5,6-dihydro-8H-[1,2,4]triazolo[4,3-a]pyrazin-7-yl)-thieno[2,3-d]pyrimidin-2-yl]-piperidin-3-ylamine] | 45 | 150 |
|  | CCCc1cc2c(N3CCn4c(nnc4C(F)(F)F)C3)nc(NCCN3CSCC3=O)nc2s1 [Example 1-128, 3-{2-[6-Propyl-4-(3-trifluoromethyl-5,6-dihydro-8H-[1,2,4]triazolo[4,3-a]pyrazin-7-yl)-thieno[2,3-d]pyrimidin-2-ylamino]-ethyl}-thiazolidin-4-one] | 61 | 100 |
|  | CCCc1cc2c(N3CCn4c(nnc4C(F)(F)F)C3)nc(N3CCNC(=O)C3)nc2s1 [Example 1-1, 4-[6-Propyl-4-(3-trifluoromethyl-5,6-dihydro-8H-[1,2,4]triazolo[4,3-a]pyrazin-7-yl)-thieno[2,3-d]pyrimidin-2-yl]-piperazin-2-one] | 130 | 20 |
|  | CCCc1cc2c(N3CCn4c(nnc4C(F)(F)F)C3)nc(-n3ccc4ccccc43)nc2s1 [Example 1-73, 7-(2-Indol-1-yl-6-propyl-thieno[2,3-d]pyrimidin-4-yl)-3-trifluoromethyl-5,6,7,8-tetrahydro-[1,2,4]triazolo[4,3-a]pyrazine] | > 4000 | 360 |
|  | CCCCc1cc2c(N3CCn4c(nnc4C(F)(F)F)C3)nc(N3CCNC(=O)C3)nc2s1 [Example 2-14, 4-[6-Butyl-4-(3-trifluoromethyl-5,6-dihydro-8H-[1,2,4]triazolo[4,3-a]pyrazin-7-yl)-thieno[2,3-d]pyrimidin-2-yl]-piperazin-2-one] | 329 | 100 |
|  | CCCc1cc2c(N3CCn4c(nnc4C(F)(F)F)C3)nc(N3CC[C@H](NC(=O)CCN)C3)nc2s1 [Example 1-110, 3-Amino-N-{(S)-1-[6-propyl-4-(3-trifluoromethyl-5,6-dihydro-8H-[1,2,4]triazolo[4,3-a]pyrazin-7-yl)-thieno[2,3-d]pyrimidin-2-yl]-pyrrolidin-3-yl}-propionamide] | 60 | 670 |
|  | CCCc1cc2c(N3CCn4c(nnc4C(F)(F)F)C3)nc(-c3nnc(CC4CCCCC4)o3)nc2s1 [Example 4-43, 7-[2-(5-Cyclohexylmethyl-[1,3,4]oxadiazol-2-yl)-6-propyl-thieno[2,3-d]pyrimidin-4-yl]-3-trifluoromethyl-5,6,7,8-tetrahydro-[1,2,4]triazolo[4,3-a]pyrazine] | 2700 | 147 |
|  | CCCc1cc2c(N3CCn4c(nnc4C(F)(F)F)C3)nc(N3CCCCC3CO)nc2s1 (stereo not shown) [Example 1-28, {1-[6-Propyl-4-(3-trifluoromethyl-5,6-dihydro-8H-[1,2,4]triazolo[4,3-a]pyrazin-7-yl)-thieno[2,3-d]pyrimidin-2-yl]-piperidin-2-yl}-methanol] | 176 | 40 |
|  | CCCc1cc2c(N3CCn4c(nnc4C(F)(F)F)C3)nc(Oc3ccc(OCC(=O)O)cc3)nc2s1 [Example 3-44, {4-[6-Propyl-4-(3-trifluoromethyl-5,6-dihydro-8H-[1,2,4]triazolo[4,3-a]pyrazin-7-yl)-thieno[2,3-d]pyrimidin-2-yloxy]-phenoxy}-acetic acid] | 500 | 180 |
|  | CCCc1cc2c(N3CCn4c(nnc4C(F)(F)F)C3)nc(-c3nnc(C)o3)nc2s1 [Example 4-32, 7-[2-(5-Methyl-[1,3,4]oxadiazol-2-yl)-6-propyl-thieno[2,3-d]pyrimidin-4-yl]-3-trifluoromethyl-5,6,7,8-tetrahydro-[1,2,4]triazolo[4,3-a]pyrazine] | 150 | 230 |
|  | CCCc1cc2c(N3CCn4c(nnc4C(F)(F)F)C3)nc(N3CC[C@H](C(=O)NCCN)C3)nc2s1 [Example 1-91, (S)-1-[6-Propyl-4-(3-trifluoromethyl-5,6-dihydro-8H-[1,2,4]triazolo[4,3-a]pyrazin-7-yl)-thieno[2,3-d]pyrimidin-2-yl]-pyrrolidine-3-carboxylic acid (2-amino-ethyl)-amide] | 140 | 190 |
|  | CCc1cc2c(N3CCc4[nH]ncc4C3)nc(N3CCNC(=O)C3)nc2s1 [Example 6-24, 4-[6-Ethyl-4-(1,4,6,7-tetrahydro-pyrazolo[4,3-c]pyridin-5-yl)-thieno[2,3-d]pyrimidin-2-yl]-piperazin-2-one] |  | 30000 |
|  | CC(C)c1cc2c(N3CCn4c(nnc4C(F)(F)F)C3)nc(NCCO)nc2s1 [Example 2-11, 2-[6-Isopropyl-4-(3-trifluoromethyl-5,6-dihydro-8H-[1,2,4]triazolo[4,3-a]pyrazin-7-yl)-thieno[2,3-d]pyrimidin-2-ylamino]-ethanol] |  | 1820 |
|  | CCc1cc2c(N3CCc4c(ncnc4C(F)(F)F)C3)nc(N3CCNC(=O)C3)nc2s1 [Example 6-30, 4-[6-Ethyl-4-(4-trifluoromethyl-5,8-dihydro-6H-pyrido[3,4-d]pyrimidin-7-yl)-thieno[2,3-d]pyrimidin-2-yl]-piperazin-2-one] |  | 1040 |
| 26.4 | CCc1cc2c(N3CCc4c([nH]n(C)c4=O)C3)nc(OCC(O)CO)nc2s1 (stereo not shown) [Example 6-42, 6-[2-(2,3-Dihydroxy-propoxy)-6-ethyl-thieno[2,3-d]pyrimidin-4-yl]-2-methyl-1,2,4,5,6,7-hexahydro-pyrazolo[3,4-c]pyridin-3-one] |  |  |
|  | CC(C)c1cc2c(N3CCn4c(nnc4C(F)(F)F)C3)nc(N3CCN(C)CC3)nc2s1 [Example 2-13, 7-[6-Isopropyl-2-(4-methyl-piperazin-1-yl)-thieno[2,3-d]pyrimidin-4-yl]-3-trifluoromethyl-5,6,7,8-tetrahydro-[1,2,4]triazolo[4,3-a]pyrazine] |  | 1100 |
|  | CCCc1cc2c(N3CCn4c(nnc4C(F)(F)F)C3)nc(C(=O)OCC)nc2s1 [Example 4-1, 6-Propyl-4-(3-trifluoromethyl-5,6-dihydro-8H-[1,2,4]triazolo[4,3-a]pyrazin-7-yl)thieno[2,3-d]pyrimidine-2-carboxylic acid ethyl ester] |  | 240 |
| 23.6 | CCc1cc2c(N3CCc4c([nH]n(C)c4=O)C3)nc(N3CCNC(=O)C3)nc2s1 [Example 6-41, 6-[6-Ethyl-2-(3-oxo-piperazin-1-yl)-thieno[2,3-d]pyrimidin-4-yl]-2-methyl-1,2,4,5,6,7-hexahydro-pyrazolo[3,4-c]pyridin-3-one] |  |  |
|  | CCc1cc2c(N3CCc4cc(OC)c(OC)cc4C3)nc(N3CCNC(=O)C3)nc2s1 [Example 6-28, 4-[4-(6,7-Dimethoxy-3,4-dihydro-1H-isoquinolin-2-yl)-6-ethyl-thieno[2,3-d]pyrimidin-2-yl]-piperazin-2-one] |  | 5600 |
